The test system of the assay is CEM cells HIV-1 protection, formazan growth assay. The assay can be described thus: NCI AIDS Antiviral Assay. The note with it: for IC50: measured here: growth of uninfected CEM cells. The procedure, abridged:
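Screen of anti-HIV-1 activity in human CEM cells using a formazan-based growth measurement at five drug concentrations. Hits with 50% or greater protection were repeated, and confirmation required reproducible complete protection.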

SMILES strings stand for the structures. The source made the active and inactive calls.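 The calls were made as follows: active = compounds giving half or more protection of infected cells from virus-caused growth loss, again on retest; inactive = the rest.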

As to `C/C(=N\NC(=S)N(C)C)c1ccccn1`, the EC50 (as a rule, the midpoint of the concentration-response curve) was over 2.24 µM and the IC50 (usually the concentration needed to halve the response being measured) worked out at 0.0138 µM. For `N#CCCC1C(=O)CCCC1=O`, in that order: over 200 µM and over 200 µM. Consider `COc1ccccc1-n1c(=S)n(-c2ccccc2C)c2nc3ccccc3nc1/c2=N\Nc1ccccn1`, for which the EC50 was over 200 µM and the IC50 is over 200 µM. Regarding `C1CCC2(CC1)SSC1(CCCCC1)S2`, the EC50 is over 200 µM and the IC50 worked out at 110 µM. On to `O=C(NCCCCCCCCCCCCNC(=O)c1cnc2ccccc2n1)c1cnc2ccccc2n1`, for which the EC50 is over 4.9 µM and the IC50 was over 4.9 µM. For `CC(C)CCC[C@@H](C)[C@H]1CC[C@H]2[C@@H]3CC[C@H]4C[C@@H](CCC=C(c5cc(Cl)c(O)c(C(=O)O)c5)c5cc(Cl)c(O)c(C(=O)O)c5)CC[C@]4(C)[C@H]3CC[C@]12C`, the EC50 was 37.2 µM and the IC50 turned out to be 295 µM. For the compound `O=C1N=C(SC2OC(CO)C(O)C(O)C2O)S/C1=C\c1ccccc1` (stereo not given), the result was inactive.

Take `Cc1nc(N)c(N2CCN(Cc3ccccc3)CC2)c(=O)[nH]1`: the EC50 is over 200 µM and the IC50 is over 200 µM. As for `COC1OC2=CCC3C(=O)NC(=O)C3C2[C@H](OC)C1OC` (stereo not given in full), the outcome was inactive. In the case of `CCCCCCCCCCCC1CN=C(CCCCC2=NCC(CCCCCCCCCCC)N2)N1` (stereo not given), the EC50 is over 7.08 µM and the IC50 was over 7.08 µM.

`Cc1cc(C(=O)c2ccccc2)c2oc(-c3ccccc3)c(Cl)c(=O)c2c1`: the EC50 is over 47.9 µM and the IC50 was over 47.9 µM.

For the compound `COc1ccc(-c2c3c(nc4nc(SCCc5ccccc5)nc(N)c24)CCCC3)cc1OC`, the EC50 is over 200 µM and the IC50 is over 200 µM.

For the compound `Cn1c(=O)[nH]c2nccnc2c1=O`, the EC50 was over 200 µM and the IC50 was over 200 µM. Turning to `CC(/C=N/NC1=NCCCN1)=N\NC1=NCCCN1`, the EC50 was over 200 µM and the IC50 was over 200 µM. For `O=C1OC(=O)C2C1C(c1ccc([N+](=O)[O-])cc1)N1C3C(=O)OC(=O)C3C(c3ccc([N+](=O)[O-])cc3)N21` (stereo not given), the EC50 was over 27.5 µM and the IC50 is over 27.5 µM. In the case of `Cc1nc(Nc2ccc(Cl)cc2Cl)sc1C(=O)Nc1ccccc1`, the EC50 was over 200 µM and the IC50 worked out at 117 µM. The corresponding values for `CO[C@H]1SC[C@H](OC(C)=O)[C@H](OC(C)=O)[C@H]1OC(C)=O` are over 200 µM and over 200 µM.

Consider `CN(C)c1n/c(=N/c2ncn[nH]2)ss1`, for which the result was inactive. Consider `Cc1ccc2c(c1)NC(=S)N=S2(C)=O` (stereo not given), for which the EC50 was over 158 µM and the IC50 came to 93.3 µM. With `COc1c(-c2ccc(F)cc2)oc2c(CC(=O)O)cccc2c1=O`, the EC50 is over 200 µM and the IC50 came out at 162 µM. Regarding `NNc1c(C(N)=O)c2c(N)ncnc2n1C1OC(CO)C(O)C1O` (stereo not given), the EC50 is over 0.2 µM and the IC50 came out at 0.00912 µM. On to `CCOc1ccccc1NC(=O)C(C#N)C1=C(Cl)C(=O)c2ccccc2C1=O` (stereo not given), for which the outcome was inactive. Turning to `O=C(CCCl)NNC1=NCCN1`, the EC50 was over 200 µM and the IC50 is over 200 µM. Consider `Cc1cn(C2CC(O)C(CO)(C(F)(F)F)O2)c(=O)[nH]c1=O` (stereo not given), for which the EC50 was over 200 µM and the IC50 is over 200 µM. On to `S=C(NCc1ccccc1-c1ccccc1)Nc1ccc(Br)cn1`, for which the EC50 was over 2 µM and the IC50 stood at 0.38 µM. For the compound `COc1cc2oc(=O)cc(C)c2c(OC)c1OC(C)=O`, the EC50 was over 200 µM and the IC50 was over 200 µM. Take `COC(=O)NC(S(=O)(=O)O)S(=O)(=O)O`: the outcome was inactive. In the case of `CC(C)=CC1CC(=[N+]=[N-])C(=O)C1(C)C` (stereo not given), the EC50 was over 186 µM and the IC50 is over 186 µM. As to `CN(C)c1ccc(C=C2C(=O)OC(C)(C)OC2=O)cc1Br`, the EC50 is over 28.2 µM and the IC50 was over 28.2 µM. Regarding `Cc1cc(N=C2C=C(Br)C(=O)C(Br)=C2)cc(CN(CC(=O)O)CC(=O)O)c1O`, the EC50 was over 45.7 µM and the IC50 was 0.501 µM. For `CS(=O)(=O)SCCCS(=O)(=O)O`, in that order: over 912 µM and over 912 µM. On to `Nc1ccc(N=Nc2ccccc2)c(N)n1`, for which the EC50 is over 200 µM and the IC50 worked out at 32.4 µM.

As to `Cc1ccc(NC(=O)/C(=N/NC(=O)C[N+](C)(C)C)c2nc3ccccc3[nH]c2=O)cc1`, the EC50 was over 186 µM and the IC50 is 120 µM. For `COc1cc(C2c3cc4c(cc3CCN2C(=O)c2ccccc2)OCO4)cc(OC)c1OC` (stereo not given), in that order: over 200 µM and 13.5 µM. Take `CC#N.CC#N.COC(=O)[C@@H]1CN(C(=O)c2ccccc2)C(=O)[N-]1.COC(=O)[C@@H]1CN(C(=O)c2ccccc2)C(=O)[N-]1.COC(=O)[C@@H]1CN(C(=O)c2ccccc2)C(=O)[N-]1.COC(=O)[C@@H]1CN(C(=O)c2ccccc2)C(=O)[N-]1.[Rh+2].[Rh+2]`: the EC50 was 10.7 µM and the IC50 was determined as 87.1 µM. The corresponding values for `Cc1cn(C2CC(Br)=NO2)c(=O)[nH]c1=O` (stereo not given) are over 200 µM and 34.7 µM. With `NC(=O)N/N=C(\CC1OC(=O)c2ccccc21)c1ccc([N+](=O)[O-])cc1` (stereo not given), the result was inactive. Same read-out and setting: the result for `Nc1ccn(C2OC(C(O)CO)C(O)C2O)c(=O)n1` (stereo not given) reads “inactive”. On to `Cc1cc2c(C(C)C)c(O)c(O)c3coc(/c1=c1/c(C)cc4c(C(C)C)c(=O)c(=O)c5coc1c45)c32`, for which the EC50 is over 53.7 µM and the concentration for half-maximal inhibition (IC50) is 8.91 µM. For the compound `C=CCn1c(-c2ccc([N+](=O)[O-])cc2)cs/c1=N\C(P(=O)(O)O)P(=O)(O)O`, the EC50 was over 200 µM and the IC50 is over 200 µM. In the case of `O=c1c(Cl)c(N2CCCCC2)cnn1-c1ccccc1`, the EC50 was over 174 µM and the IC50 was over 174 µM. Consider `CC(=O)N1C(C(=O)NNc2ccccc2)CSC1c1ccccc1` (stereo not given), for which the EC50 was over 200 µM and the IC50 was 12.3 µM. For `Cc1cc2c(nn1)-c1ccccc1C2=O`, in that order: over 200 µM and 105 µM.

For the compound `Cc1nc2sc(C)c(C)c2c(=O)o1`, the EC50 was over 200 µM and the IC50 was 95.5 µM.

For `N#Cc1n[nH]n(-c2ccc(Br)cc2)c1=O`, the EC50 was over 200 µM and the IC50 was over 200 µM. In the case of `CC(C)(CNC(=O)/C(Cl)=C(/Cl)C(=O)O)CNC(=O)/C(Cl)=C(/Cl)C(=O)O`, the EC50 was over 200 µM and the 50% inhibitory concentration (IC50) came to 17 µM.

For `COc1ccccc1N/C(=C\C(=O)C(=O)NC12CC3CC(CC(C3)C1)C2)c1ccccc1`, the EC50 was over 200 µM and the IC50 is over 200 µM. In the case of `COc1cc2cc(OC(C)=O)c3cc4c(cc3c2c(OC)c1OC)OCO4`, the EC50 is over 676 µM and the IC50 was over 676 µM. For `CC(=O)COC(=O)CC(C)=O`, the result was inactive. Take `Cn1c2c(c3ccccc31)CCN1C[C@@H]3CCCC[C@H]3C[C@@H]21`: the EC50 was over 100 µM and the IC50 came out at 1.62 µM. As to `CCOC(=O)C1=C(O)c2ccccc2C(=O)C1=O`, the EC50 is over 525 µM and the IC50 was found to be 316 µM. For `CCOC(=O)CC1(Cc2ccc(OCc3ccccc3)cc2)C(=O)OC(c2ccccc2)N1C(=O)c1ccccc1` (stereo not given), the EC50 was over 200 µM and the IC50 was over 200 µM. Turning to `N#CC1(C#N)C2(c3ccccc3)OC(c3ccccc3)(c3cc4ccccc4cc32)C1(C#N)C#N`, the result was inactive. Take `S=C(N/N=C/c1ccccn1)N1CCCCC1`: the EC50 was over 0.2 µM and the IC50 was 0.011 µM.

Turning to `COC(=O)Nc1cn2nc(N)sc2n1`, the EC50 is over 200 µM and the 50% inhibitory concentration (IC50) was over 200 µM. For `OCC1OC(n2cnc3c2NC=NCC3O)C(Cl)C1O` (stereo not given), the EC50 is over 295 µM and the IC50 is over 295 µM. For `CCCCC(CC)CN(Cc1cc(CN(CC(CC)CCCC)CC(CC)CCCC)c(O)c(CN(CC(CC)CCCC)CC(CC)CCCC)c1)CC(CC)CCCC` (stereo not given), the EC50 is over 200 µM and the IC50 stood at 34.7 µM. For `O=C1C2N=NN(c3ccccc3)C2C(=O)N1c1ccccc1` (stereo not given), in that order: 41.7 µM and over 200 µM. As to `COc1cccc(N2C(=O)[C@H]3[C@H]4CC(C(C)(C)C)CC[C@H]4c4c([nH]c5ccccc45)[C@H]3C2=O)c1` (stereo not given in full), the EC50 is 18.2 µM and the IC50 worked out at 26.9 µM.

Consider `CCOc1ccc(N2C(=O)/C(=C/c3ccc(N(CCC#N)CCC#N)cc3)N=C2c2cc([N+](=O)[O-])ccc2Cl)cc1`, for which the EC50 is over 33.1 µM and the IC50 turned out to be 21.4 µM. The corresponding values for `CC(=O)c1cccc(NC(=O)C(=O)Nn2c(N)nnc2N)c1` are over 158 µM and over 158 µM. For `CC=C(c1cc(Cl)c(OC)c(C(=O)OC)c1)c1cc(Cl)c(OC)c(C(=O)OC)c1`, in that order: over 2 µM and 0.0631 µM.

As to `CCN(c1ccccc1)c1nc(N)nc(NS(=O)(=O)c2cc(C)c(Cl)cc2S)n1`, the EC50 is 70.8 µM and the IC50 was over 200 µM.

Turning to `O=C(O)CSC1=NNC2(C(=O)N1)c1ccccc1-c1ccccc12`, the EC50 was over 200 µM and the IC50 amounted to 58.9 µM. For `CC[C@H](C)[C@H](NC(=O)N(CCC#N)CCN(CCN(C(=O)N[C@@H](Cc1ccccc1)C(=O)OC)c1ccccc1)C(=O)N[C@H](C(=O)OC)C(C)C)C(=O)OC`, the result was inactive. As for `CC(C)(C)C1CCC(CC(=O)O)(CC(=O)Nc2nccs2)CC1` (stereo not given), the EC50 is over 200 µM and the IC50 was determined as 89.1 µM. The corresponding values for `C/C=C(/C)C(=O)O[C@H](C[C@@H](C)[C@H]1CC(c2ccoc2)OC1=O)[C@@]1(C)C(=O)CCC2O[C@]21C` (stereo not given in full) are over 200 µM and over 200 µM. Turning to `O=S1(=O)CCCCO1`, the outcome was inactive. For `Oc1ccc(C23CC4CC(CC(C4)C2)C3)cc1`, the outcome was inactive. In the case of `COC1C=COC2(C)Oc3c(C)c(O)c4c(O)c(c(C5SCCS5)c(O)c4c3C2=O)NC(=O)/C(C)=C\C=CC(C)C(O)C(C)C(O)C(C)C(OC(C)=O)C1C` (stereo not given), the EC50 was over 200 µM and the IC50 amounted to 0.646 µM.

For `O=[N+]([O-])c1ccc([I+]c2ccccc2)cc1`, the EC50 is over 200 µM and the IC50 amounted to 2.57 µM.

(Values after PubChem BioAssay AID179 (DTP/NCI, 2004).)
